Source: PMC12169489, “Allosteric Covalent Inhibitors of the STAT3 Transcription Factor from Virtual Screening” (ACS Medicinal Chemistry Letters, 2025)
Where “and” joins values, the source holds several entries; their conditions need not be identical. Equal values may be shown once.

Columns and labels:
STAT3 protein = STAT3 protein (Homo sapiens, UniProt P40763); test: Intact protein LC-MS labelling; format: binding
Excerpt: 1 Overview of the virtual screening workflow and hit follow-up. (a) Overview of the covalent docking virtual screening workflow, including representation of the key residues inside the binding site and highlighting the C259 residue. Remaining molecules after each step are included in parentheses. (b) Schematic representation of the expected mass peaks and shifts from the MS results for single and multiple labeling. The values assigned to the peaks for other than the peak corresponding to the unlabeled protein represents mass shift(s) resulting from successful labeling.
RPLC-MS analysis of the intact proteins were performed on a a Triple TOF 5600+ hybrid Quadrupole-TOF LC/MS/MS system (Sciex, MA, USA) equipped with a DuoSpray IonSource coupled with a Shimadzu Prominence LC20 UFLC (Shimadzu, Japan) system consisting of quaternary pump, an autosampler and a thermostatted column compartment. Chromatographic separation was achieved on the Discovery® BIO Wide Pore C-18-5 (250 mm × 2.1mm, 5 μm, 300 Å) HPLC column. Sample was eluted in gradient elution mode using solvent A (0.1% formic acid in water) and solvent B (0.1% formic acid in ACN). The initial condition was 5% B for 7 min, followed by a linear gradient to 90% B by […], from 55 to 63 min 90% B was retained; and from 63 to 65 min back to initial condition with 5 % eluent B and retained for 10 min. Flow rate was set to 0.2 ml/min. […]

[1] = target: T1, STAT3 protein (residues 127–688) (Homo sapiens, UniProt P40763); test: Fluorescence polarization (FP) assay, 5-FAM-G(pTyr)LPQTV-NH2 peptide; format: binding; settings: 200 nM STAT3, 5 nM fluorescent peptide, 1 h at 37 °C preincubation, mean ± 95% confidence interval, 3 replicas
T1 construct: The STAT3 protein (residues 127–688) was expressed and purified; made in house
Protocol: The STAT3 protein (residues 127–688) was expressed and purified as described in our recent work. Fluorescence polarization assays were performed on a Molecular Devices SpectraMax iD5Multimode Microplate Reader (San Jose, CA, USA) using Greiner black 384-well flat-bottom nonbinding microplates with 40 μL final well volumes. The fluorescent peptide (5-FAM-G(pTyr)-LPQTV-NH2, purchased from GenScript Biotech Ltd., Piscataway, NJ, USA), as well as the protein were diluted with a buffer containing 50 mM NaCl, 10 mM HEPES (4-(2-hydroxyethyl)-1-piperazineethanesulfonic acid), 1 mM EDTA (ethylenediaminetetraacetic acid), 2 mM DTT (dithiothreitol), and 0.1% Triton X-100, pH 7.5. The final concentration of the STAT3 protein was 200 nM, and the fluorescent peptide was added at a final concentration of 5 nM. The wells were treated with varying concentrations of inhibitor compounds, with a 5% final DMSO content. Protein and inhibitors were incubated at 37 °C for 1 h. Then the fluorescence peptide was added, and then the plate was incubated for another 20 min prior to the fluorescence readout (extinction wavelength: 475 nm, emission wavelength: 520 nm). The measurements were carried out using 3 parallel biological replicas. Fluorescence polarization was calculated from the perpendicular and parallel fluorescence intensities and then plotted against concentration. The IC50 values were determined after fitting […] dose–response curves on data points using GraphPad Prism 8.0.1. software.
Figure S6. Fluorescence polarization assay results. Nonlinear curve fitting was used ([Inhibitor] vs. response - Variable slope (four parameters)) with least squares fitting. IC50s are presented with 95% confidence intervals, measurements were done in 3 parallel biological replicas.

T1 sequence (P40763 127-688): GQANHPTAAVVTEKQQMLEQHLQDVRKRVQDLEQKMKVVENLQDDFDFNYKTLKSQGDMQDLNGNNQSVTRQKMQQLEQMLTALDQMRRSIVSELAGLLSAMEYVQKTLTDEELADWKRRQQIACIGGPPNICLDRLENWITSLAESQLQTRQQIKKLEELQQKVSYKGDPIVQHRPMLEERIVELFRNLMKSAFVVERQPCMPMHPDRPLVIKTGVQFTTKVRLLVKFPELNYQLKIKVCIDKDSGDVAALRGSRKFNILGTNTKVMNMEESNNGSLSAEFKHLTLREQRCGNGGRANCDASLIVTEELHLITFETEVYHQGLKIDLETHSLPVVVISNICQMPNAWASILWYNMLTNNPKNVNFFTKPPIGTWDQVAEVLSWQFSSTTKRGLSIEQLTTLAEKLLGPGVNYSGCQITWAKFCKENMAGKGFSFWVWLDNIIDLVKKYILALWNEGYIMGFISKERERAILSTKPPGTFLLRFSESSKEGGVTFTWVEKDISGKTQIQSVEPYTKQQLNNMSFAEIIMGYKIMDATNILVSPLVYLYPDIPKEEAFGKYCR
Chain of STAT3 protein (P40763 127-688 limits assumed): as the sequence (P40763 127-688) above

Covalent labelling of STAT3 (single vs multiple) (STAT3 protein) | IC50 [1] | SMILES
single labeling | 2.91 ± 0.66 µM | C=CC(=O)N1CCCC(O)(C(=O)NCc2ccc3c(c2)OCO3)C1 (centres unmarked) [6b, 1-acryloyl-N-(benzo[d][1,3]dioxol-5-ylmethyl)-3-hydroxypiperidine-3-carboxamide]
 | 50.4 ± 39.4 µM | C=CC(=O)N1CCCC(C(=O)NCc2ccc3c(c2)OCO3)C1 (centres unmarked) [6a, 1-acryloyl-N-(benzo[d][1,3]dioxol-5-ylmethyl)piperidine-3-carboxamide]
 | 94.6 µM and 94.5 µM | C=CC(=O)N1CCC(C(=O)N2CCN(C(=O)Cc3ccccc3C)CC2)CC1 [K10]
 | 40.7 ± 16.7 µM | C=CC(=O)N1CCCC(C(=O)NCc2cc(Br)c3c(c2)OCO3)C1 (centres unmarked) [K2]
 | 141 ± 53.4 µM | CCC(=O)N1CCCC(C(=O)NCc2ccc3c(c2)OCO3)C1 (centres unmarked) [10a, N-(benzo[d][1,3]dioxol-5-ylmethyl)-1-propionylpiperidine-3-carboxamide]
 | 44.9 ± 22.7 µM | C=CC(=O)N1CCC(C(=O)NCC(O)c2c(F)cccc2F)CC1 (centres unmarked) [K6]
labeled the protein at multiple residues | 33.4 ± 5 µM | C=CS(=O)(=O)N1CCCC(C(=O)NCc2ccc3c(c2)OCO3)C1 (centres unmarked) [compound 8, N-(benzo[d][1,3]dioxol-5-ylmethyl)-1-(vinylsulfonyl)piperidine-3-carboxamide]
 | 255 ± 124 µM | C=CC(=O)N1CC(C(=O)NCCN2CC3CCCCN3C2=O)C1 (centres unmarked) [K3]
 | 86.7 ± 49.9 µM | CCC(=O)N1CCCC(O)(C(=O)NCc2ccc3c(c2)OCO3)C1 (centres unmarked) [10b, N-(benzo[d][1,3]dioxol-5-ylmethyl)-3-hydroxy-1-propionylpiperidine-3-carboxamide]
